Here are results for three compounds from patent publication US12590332B2, “Composition for diagnosing or treating kidney disease” (INJE UNIVERSITY INDUSTRY-ACADEMIC COOPERATION FOUNDATION, priority 2020, dated 2026).

One data set relates to mouse podocyte cell line. The experiment in a line: VSIG4 expression in podocytes (mRNA by PCR, protein by Western blot). Format: cell-based. The method, then: The mouse podocyte cell line was mixed with 10% heat inactivated fetal bovine serum, 100 IU/mL of penicillin, and […] of streptomycin in RPMI culture medium and cultured in a humid atmosphere in the presence of 5% CO2 at 37° C. To evaluate VSIG4 expression, low glucose (LG, 5.5 mM) and high glucose (HG, 55 mM), 100 nM angiotensin II, 1.0 μg/mL and 3.0 μg/mL of Adriamycin were treated. The medium in a plate in which cells are being cultured was removed and RNA was extracted using Trizol (Life Technologies, Gaithersburg, MD, USA). Reverse transcription (RT) was performed using a cDNA synthesis kit (Applied biosystems, Roche Inc., Foster City, CA, USA), mRNA expression was evaluated using polymerase chain reaction (PCR), and the expression level was corrected with β-actin or GAPDH. Proteins obtained by treating cell lysates with RIPA buffer were quantified, and 20 μg of protein was separated using 8-15% SDS-PAGE. After separation of the protein by electrophoresis using 10% SDS-PAGE, the protein was transferred to a PVDF membrane (Millipore corporation bedford, USA) using a PAGE transfer buffer (Amersham Life Science, Arlington Heights, IL) at 270 mA for 4 hours, reacted overnight at 4° C. using a blocking solution (5% skim milk), and washed with Tris buffered saline with Tween-20 (TBS-T buffer; 10 mM Tris-Cl, pH 7.8, […] Nacl, 0.05% Tween-20). […]
For orientation: In western blotting, separated proteins are transferred to a membrane and probed.

The subject of another data set is Balb/c male mice. The experiment in a line: Adriamycin-induced renal injury model. The following applies: 11 mg/kg once into tail vein, 4 weeks, FIG. 8.
For the next data set, the system named is HK2 cells. The experiment in a line: VSIG4 expression in HK2 renal tubular cells (mRNA by PCR, protein by Western blot). Format: cell-based, human. The following applies: renal tubular cells treated with TGF-β (10 ng/mL recombinant); FIG. 3. The method, then:
HK2 cells (A TCC, Manassan, VA), immortalized human renal proximal tubule cells, were cultured by adding, in a DMEM medium (Mediatech Inc., Corning Subsidiary, Manassas, VA), 10% heat inactivated fetal bovine serum (Tissue Culture Biologicals, Tulare, CA, USA), 100 IU/mL of penicillin, and […] of streptomycin in a humid atmosphere in the presence of 5% CO2 at 37° C.
[…] The purchased scrambled siRNA (control siRNA) and VSIG4 siRNA (z391g, Santa Cruz Biotechnology, Santa Cruz, CA) were each transfected by 200 MOI to suppress VSIG4 expression in HK2 cells.
To inhibit TGF-β expression, TGF-β-siRNA (Santa Cruz Biotechnology, Santa Cruz, CA, USA) was used, and 10 ng/mL of recombinant TGF-β (R&D systems, Minneapolis, MN, USA) was used for TGF-β stimulation experiment.
The medium in a plate in which cells are being cultured was removed and RNA was extracted using Trizol (Life Technologies, Gaithersburg, MD, USA). Reverse transcription (RT) was performed using a cDNA synthesis kit (Applied biosystems, Roche Inc., Foster City, CA, USA), mRNA expression was evaluated using polymerase chain reaction (PCR), and the expression level was corrected with β-actin or GAPDH.
Proteins obtained by treating cell lysates with RIPA buffer were quantified, and 20 μg of protein was separated using 8-15% SDS-PAGE. […]

In the case of `COc1cccc2c1C(=O)c1c(O)c3c(c(O)c1C2=O)C[C@@](O)(C(=O)CO)C[C@@H]3O[C@H]1C[C@H](N)[C@H](O)[C@H](C)O1` [Adriamycin], the “expression of VSIG4 mRNA and protein” value in the data set with mouse podocyte cell line (podocytes, 1.0 μg/mL and 3.0 μg/mL, 12 hours and 24 hours, FIG. 9) was “increased over time”. The “VSIG4 protein expression (urine)” value in the data set on Balb/c male mice (24-hour urine, ELISA) is recorded as “significantly increased”. Besides, in the data set on Balb/c male mice (24-hour urine), the albuminuria result is “significantly increased”. Besides, the “VSIG4 mRNA expression in kidney tissues” value with Balb/c male mice is recorded as “significantly increased”.
On to TGF-β, for which the VSIG4 expression result with HK2 cells is reported as “increased”.
With “angiotensin II (DRVYIHPF; Angiotensin-2; UniProt P01019 25-32, looked up) [main substance of kidney damage used to stimulate podocytes]”, the “expression of VSIG4 mRNA and protein” value in the data set on mouse podocyte cell line (podocytes stimulated with high glucose (55 mM) and angiotensin II (100 nM), compared to low glucose, FIG. 4) was “increased”.
